Like-named read-outs stand apart in the source and are kept apart here.
Columns and labels:
[1] = molecular target: IMPDH human type II (Homo sapiens, UniProt P12268); assay: biochemical
[2] = tested on: human PBMC T cells; assay: cells; assay type: cell-based; details: Homo sapiens, 72 h, read-out: T-cells (IC50)
[3] = tested on: human PBMC B cells; assay: cells; assay type: cell-based; details: Homo sapiens, 72 h, read-out: B-cells (IC50)

| SMILES | Ki ([1]; read-out: Ki) [nM] | IC50 [2] [nM] | IC50 [3] [nM] | other results |
| --- | --- | --- | --- | --- |
| COc1cc(NC(=O)Nc2cccc(CNC(=O)O[C@@H](CCl)CC#N)c2)ccc1-c1cnco1 [Compound 25] | < 10 | – | – | – |
| COc1cc(NC(=O)Nc2cccc(CNC(=O)O[C@H](CC#N)COCc3ccccc3)c2)ccc1-c1cnco1 [Compound 55] | < 10 | – | – | – |
| CC[C@H](COC(C)=O)OC(=O)NCc1cccc(NC(=O)Nc2ccc(-c3cnco3)c(OC)c2)c1 [Compound 94] | < 10 | – | – | – |
| CCN(CC1CC1)CC(OC(=O)NCc1cccc(NC(=O)Nc2ccc(-c3cnco3)c(OC)c2)c1)c1ccccc1 (centres unmarked) [Compound 134] | – | 100 to 1000 | 100 to 1000 | – |
| CC[C@H](CC#N)OC(=O)N[C@@H](C)c1cccc(NC(=O)Nc2ccc(C#N)c(Cl)c2)c1 [Compound 183] | – | – | – | Ki [1]: 10 to 50 nM |
| COc1cc(NC(=O)Nc2cccc(CNC(=O)O[C@@H](CC#N)CN3CCCCC3)c2)ccc1-c1cnco1 [Compound 21] | < 10 | – | – | – |
| COc1cc(NC(=O)Nc2cccc(CNC(=O)O[C@H](CCC#N)COCc3ccccc3)c2)ccc1-c1cnco1 [Compound 53] | < 10 | – | – | – |
| CC[C@H](CC#N)OC(=O)N[C@H](C)c1cccc(NC(=O)Nc2ccc(-c3cnco3)c(OC)c2)c1 [Compound 171] | > 50 | – | – | – |
| CCN(CC)C[C@@H](OC(=O)NC(C)c1cccc(NC(=O)Nc2ccc(-c3cnco3)c(OC)c2)c1)c1ccccc1 (some centres unmarked) [Compound 167] | > 50 | – | – | – |
| CCC(CN)OC(=O)NCc1cccc(NC(=O)Nc2ccc(-c3cnco3)c(OC)c2)c1 (centres unmarked) [Compound 161] | < 10 | – | – | – |
| CCOc1cc(NC(=O)Nc2cccc([C@H](C)NC(=O)O[C@H]3CCOC3)c2)ccc1C#N [Compound 186] | > 50 | – | – | – |
| CC[C@H](COC(N)=O)OC(=O)NCc1cccc(NC(=O)Nc2ccc(-c3cnco3)c(OC)c2)c1 [Compound 159] | < 10 | – | – | – |
| COc1cc(NC(=O)Nc2cccc(CNC(=O)O[C@H](CN(CC3CC3)C3CC3)c3ccccc3)c2)ccc1-c1cnco1 [Compound 137] | > 50 | – | – | – |
| CC[C@H](COP(=O)(O)O)OC(=O)NCc1cccc(NC(=O)Nc2ccc(-c3cnco3)c(OC)c2)c1 [Compound 96] | 10 to 50 | – | – | – |
| COc1cc(NC(=O)Nc2cccc(CNC(=O)OC(CCN(C)C(=O)OC(C)(C)C)c3ccccc3)c2)ccc1-c1cnco1 (centres unmarked) [Compound 31] | 10 to 50 | – | – | – |
| CCC(CO)OC(=O)N[C@@H](C)c1cccc(NC(=O)Nc2ccc(-c3cnco3)c(OC)c2)c1 (some centres unmarked) [Compound 164] | – | 100 to 1000 | 100 to 1000 | – |
| CCN(CC(OC(=O)NCc1cccc(NC(=O)Nc2ccc(-c3cnco3)c(OC)c2)c1)c1ccccc1)C1CC1 (centres unmarked) [Compound 135] | > 50 | – | – | – |

| SMILES | Ki ([1]; read-out: Ki) [nM] | IC50 [2] [nM] | IC50 [3] [nM] | other results |
| --- | --- | --- | --- | --- |
| COc1cc(NC(=O)Nc2cccc(CNC(=O)O[C@H](CN3CCSCC3)c3ccccc3)c2)ccc1-c1cnco1 [Compound 105] | < 10 | – | – | – |
| CCCN(CC)CC(OC(=O)NCc1cccc(NC(=O)Nc2ccc(-c3cnco3)c(OC)c2)c1)c1ccccc1 (centres unmarked) [Compound 111] | – | 100 to 1000 | 100 to 1000 | – |
| COc1cc(NC(=O)Nc2cccc(CNC(=O)OC(CN3CCSCC3)c3ccccc3)c2)ccc1-c1cnco1 (centres unmarked) [Compound 105] | – | 100 to 1000 | 100 to 1000 | – |
| CC[C@H](COS(N)(=O)=O)OC(=O)NCc1cccc(NC(=O)Nc2ccc(-c3cnco3)c(OC)c2)c1 [Compound 138] | < 10 | – | – | – |
| CCC(CO)OC(=O)N[C@@H](C)c1cccc(NC(=O)Nc2ccc(C#N)c(OC)c2)c1 (some centres unmarked) [Compound 176] | – | > 1000 | > 1000 | – |
| CCC(NC(=O)O[C@H](CC)CC#N)c1cccc(NC(=O)Nc2ccc(C#N)c(OC)c2)c1 (some centres unmarked) [Compound 178] | > 50 | – | – | – |
| CC[C@@H](CC#N)OC(=O)N[C@H](C)c1cccc(NC(=O)Nc2ccc(C#N)c(OC)c2)c1 [Compound 172] | – | – | – | Ki [1]: > 50 nM |
| COc1cc(NC(=O)Nc2cccc([C@H](C)NC(=O)OC3CCOC3)c2)ccc1C#N (some centres unmarked) [Compound 184] | – | 100 to 1000 | 100 to 1000 | – |
| COc1cc(NC(=O)Nc2cccc(CNC(=O)OC(CCl)CC#N)c2)ccc1-c1cnco1 (centres unmarked) [Compound 25] | – | 100 to 1000 | 100 to 1000 | – |
| COc1cc(NC(=O)Nc2cccc(CNC(=O)O[C@@H]3CC[C@H](OC(C)=O)C3)c2)ccc1-c1cnco1 [Compound 85] | > 50 | – | – | – |
| CCC(COS(N)(=O)=O)OC(=O)NCc1cccc(NC(=O)Nc2ccc(-c3cnco3)c(OC)c2)c1 (centres unmarked) [Compound 138] | – | 100 to 1000 | 100 to 1000 | – |
| CCC(CC#N)OC(=O)N[C@H](C)c1cccc(NC(=O)Nc2ccc(-c3cnco3)c(OC)c2)c1 (some centres unmarked) [Compound 171] | – | 100 to 1000 | < 100 | – |
| COc1cc(NC(=O)Nc2cccc(CNC(=O)OC(CCN(C)CC(C)C)c3ccccc3)c2)ccc1-c1cnco1 (centres unmarked) [Compound 124] | > 50 | – | – | – |
| COc1cc(NC(=O)Nc2cccc(CNC(=O)OC(CC#N)CN3CCCCC3)c2)ccc1-c1cnco1 (centres unmarked) [Compound 21] | – | 100 to 1000 | > 1000 | – |
| CCC(NC(=O)O[C@@H](CC)CC#N)c1cccc(NC(=O)Nc2ccc(C#N)c(OC)c2)c1 (some centres unmarked) [Compound 177] | > 50 | – | – | – |
| CCN(CC)CC(OC(=O)NCc1cccc(NC(=O)Nc2ccc(-c3cnco3)c(OC)c2)c1)C1CCCCC1 (centres unmarked) [Compound 157] | – | < 100 | < 100 | – |

Reference: patent US7087642B2 (priority 1999, dated 2006)
